Reference: patent US9469637B2, “Nitrogenated heterocyclic compound” (Takeda Pharmaceutical Company Limited, priority 2012, dated 2016)

biological target: T1, Human PDE2A3 enzyme (Homo sapiens, UniProt O00408); experiment: PDE2A3 enzyme inhibition, SPA (Scintillation Proximity Assay); type: biochemical; conditions: 1 μM compound, substrate [3H] cGMP, read-out: Inhibition Rate (%) (1 μM)
T1 construct: generated from Sf9 cells transfected with the full-length gene; His-tag; made in house; host or cells: Sf9 insect cells
Method: Human PDE2A3 enzyme was generated from Sf9 cells transfected with the full-length gene. The extracted enzyme from Sf9 cells was purified by His-tag affinity column and gel filtration. The enzyme was stored at −70° C. until use. PDE activity was measured using a SPA (Scintillation Proximity Assay) (GE Healthcare). To evaluate the inhibitory activity, 10 μl of serial diluted compounds were incubated with 20 μl of PDE enzyme in assay buffer (50 mM HEPES-NaOH, 8.3 mM MgCl2, 1.7 mM EGTA, 0.1% BSA (pH 7.4)) for 30 min. at room temperature. Final concentration of DMSO in the assay was 1 percent as compounds were tested in duplicate in 96-well half-area plates (Corning) or 384-well OptiPlate (PerkinElmer). To start the reaction, 10 μl of substrate [^3H] cGMP (77 nM, PerkinElmer) was added for a final assay volume of 40 μl. After 60 min incubation at room temperature, 20 μl of 20 mg/ml yttrium SPA beads containing Zinc sulphate was added to terminate the PDE reaction. […] Inhibition rate was calculated on the basis of 0% control wells with enzyme and DMSO, and 100% control wells without enzyme.

T1 sequence (O00408 whole entry): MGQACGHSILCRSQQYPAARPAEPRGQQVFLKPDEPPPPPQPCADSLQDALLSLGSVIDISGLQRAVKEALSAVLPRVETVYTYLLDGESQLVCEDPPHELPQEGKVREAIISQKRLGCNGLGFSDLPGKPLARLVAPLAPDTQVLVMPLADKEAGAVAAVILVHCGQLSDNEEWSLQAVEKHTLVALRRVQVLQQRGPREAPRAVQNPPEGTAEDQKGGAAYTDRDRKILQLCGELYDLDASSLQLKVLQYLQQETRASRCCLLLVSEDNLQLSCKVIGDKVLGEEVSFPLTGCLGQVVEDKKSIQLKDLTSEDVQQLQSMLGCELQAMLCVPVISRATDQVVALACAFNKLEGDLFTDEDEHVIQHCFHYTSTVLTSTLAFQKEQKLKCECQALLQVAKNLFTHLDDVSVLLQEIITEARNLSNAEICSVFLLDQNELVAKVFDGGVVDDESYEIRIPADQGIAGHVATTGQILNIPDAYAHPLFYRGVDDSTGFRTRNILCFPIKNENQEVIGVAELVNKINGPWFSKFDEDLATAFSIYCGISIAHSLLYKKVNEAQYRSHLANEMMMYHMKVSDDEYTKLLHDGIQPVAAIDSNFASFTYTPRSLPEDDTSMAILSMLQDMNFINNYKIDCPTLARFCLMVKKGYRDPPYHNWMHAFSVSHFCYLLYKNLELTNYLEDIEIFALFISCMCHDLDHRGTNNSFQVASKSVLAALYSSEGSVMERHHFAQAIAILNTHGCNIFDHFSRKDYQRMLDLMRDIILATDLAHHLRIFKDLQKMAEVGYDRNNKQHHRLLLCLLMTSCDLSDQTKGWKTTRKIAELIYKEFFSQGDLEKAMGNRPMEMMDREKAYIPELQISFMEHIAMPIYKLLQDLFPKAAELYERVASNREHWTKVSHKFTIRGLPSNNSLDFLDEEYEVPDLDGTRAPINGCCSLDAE

Point of comparison: `CC(C)(O)C(NC(=O)N1CC(=O)Nc2cc(C3CC3)cnc21)c1ccc(OC(F)(F)F)c(F)c1` (stereo not drawn) [Example 76, Optically active 7-cyclopropyl-N-(1-(3-fluoro-4-(trifluoromethoxy)phenyl)-2-hydroxy-2-methylpropyl)-2-oxo-2,3-dihydropyrido[2,3-b]pyrazine-4(1H)-carboxamide], inhibition at 1 µM 100%. Against it:
- COCC(NC(=O)N1CC(=O)Nc2cc(C)cnc21)c1ccc(-n2cccn2)cc1 (stereo not drawn) [Example 134, N-(2-methoxy-1-(4-(H-pyrazol-1-yl)phenyl)ethyl)-7-methyl-2-oxo-2,3-dihydropyrido[2,3-b]pyrazine-4(1H)-carboxamide] — lower, 97%
- Cc1cnc2c(c1)NC(=O)CN2C(=O)NC(c1ccc(OC(F)(F)F)cc1)C1CCCO1 (stereo not drawn) [Example 200, 7-methyl-2-oxo-N-(tetrahydrofuran-2-yl(4-(trifluoromethoxy)phenyl)methyl)-2,3-dihydropyrido[2,3-b]pyrazine-4(1H)-carboxamide] — the same, 100%
- COc1cc2c(nc1C)N(C(=O)N[C@@H](c1ccc(OC(F)(F)F)cc1)C(C)(C)O)CC(=O)N2 [Example 253, N-((1S)-2-hydroxy-2-methyl-1-(4-(trifluoromethoxy)phenyl)propyl)-7-methoxy-6-methyl-2-oxo-2,3-dihydropyrido[2,3-b]pyrazine-4(1H)-carboxamide] — the same, 100%
- Cc1cnc2c(c1)NC(=O)CN2C(=O)NC1(c2ccc(OC(F)(F)F)cc2)CC1 [Example 152, 7-methyl-2-oxo-N-(1-(4-(trifluoromethoxy)phenyl)cyclopropyl)-2,3-dihydropyrido[2,3-b]pyrazine-4(1H)-carboxamide] — lower, 97%
- COCC(NC(=O)N1CC(=O)Nc2ccc(-c3ccn(C)n3)nc21)c1ccc(OC(F)(F)F)cc1 (stereo not drawn) [Example 222, N-(2-methoxy-1-(4-(trifluoromethoxy)phenyl)ethyl)-6-(1-methyl-1H-pyrazol-3-yl)-2-oxo-2,3-dihydropyrido[2,3-b]pyrazine-4(1H)-carboxamide] — lower, 99%
- CC(C)(O)C(NC(=O)N1CC(=O)Nc2cc(C3CC3)cnc21)c1ccc(C(F)(F)F)cc1 (stereo not drawn) [Example 266, Optically active 7-cyclopropyl-N-(2-hydroxy-2-methyl-1-(4-(trifluoromethyl)phenyl)propyl)-2-oxo-2,3-dihydropyrido[2,3-b]pyrazine-4(1H)-carboxamide] — the same, 100%
- CCC(NC(=O)N1CC(=O)Nc2ccc(OC)nc21)c1ccc(OC(F)(F)F)cc1 (stereo not drawn) [Example 52, 6-methoxy-2-oxo-N-(1-(4-(trifluoromethoxy)phenyl)propyl)-2,3-dihydropyrido[2,3-b]pyrazine-4(1H)-carboxamide] — lower, 93%
- CCC(NC(=O)N1CC(=O)Nc2cc(C)cnc21)c1ccc(-n2cccn2)s1 (stereo not drawn) [Example 162, 7-methyl-2-oxo-N-(1-(5-(1H-pyrazol-1-yl)-2-thienyl)propyl)-2,3-dihydropyrido[2,3-b]pyrazine-4(1H)-carboxamide] — lower, 97%
- Cc1cnc2c(c1)NC(=O)CN2C(=O)NC(c1ccc(OC(F)(F)F)c(F)c1)C(C)(C)O (stereo not drawn) [Example 273, Optically active N-(1-(3-fluoro-4-(trifluoromethoxy)phenyl)-2-hydroxy-2-methylpropyl)-7-methyl-2-oxo-2,3-dihydropyrido[2,3-b]pyrazine-4(1H)-carboxamide] — lower, 98%
- COc1cnc2c(c1)NC(=O)CN2C(=O)NC(c1ccc(C(F)(F)F)cc1)C(C)(C)O (stereo not drawn) [Example 268, Optically active N-(2-hydroxy-2-methyl-1-(4-(trifluoromethyl)phenyl)propyl)-7-methoxy-2-oxo-2,3-dihydropyrido[2,3-b]pyrazine-4(1H)-carboxamide] — lower, 99%
- COC[C@@H](NC(=O)N1CC(=O)Nc2ccc(-n3cccn3)nc21)c1ccc(OC(F)(F)F)cc1 [Example 130, N-((1S)-2-methoxy-1-(4-(trifluoromethoxy)phenyl)ethyl)-2-oxo-6-(1H-pyrazol-1-yl)-2,3-dihydropyrido[2,3-b]pyrazine-4(1H)-carboxamide] — lower, 99%
- COC[C@@H](NC(=O)N1CC(=O)Nc2ccc(-n3cccn3)nc21)c1ccc(OC(F)(F)F)c(F)c1 [Example 117, N-((1S)-1-(3-fluoro-4-(trifluoromethoxy)phenyl)-2-methoxyethyl)-2-oxo-6-(1H-pyrazol-1-yl)-2,3-dihydropyrido[2,3-b]pyrazine-4(1H)-carboxamide] — lower, 99%
- COCC(NC(=O)N1CC(=O)Nc2cc(C)cnc21)c1ccc(-n2cccn2)c(F)c1 (stereo not drawn) [Example 143, N-(1-(3-fluoro-4-(1H-pyrazol-1-yl)phenyl)-2-methoxyethyl)-7-methyl-2-oxo-2,3-dihydropyrido[2,3-b]pyrazine-4(1H)-carboxamide] — lower, 98%
- COc1nc2c(cc1C)NC(=O)CN2C(=O)N[C@@H](c1ccc(OC(F)(F)F)cc1)C(C)(C)O [Example 261, N-((1S)-2-hydroxy-2-methyl-1-(4-(trifluoromethoxy)phenyl)propyl)-6-methoxy-7-methyl-2-oxo-2,3-dihydropyrido[2,3-b]pyrazine-4(1H)-carboxamide] — the same, 100%
